# Results from US20100041089A1, “IMPROVED METHOD FOR DETECTING CHEMICAL […]” (priority 2006, published 2010).
# Test system: yeast genes (expressed mRNA)
# Experiment: DNA chip measurement of expressed mRNA of yeast genes after culture with a toxic chemical substance
# Format: cell-based, Saccharomyces cerevisiae S288C
# Summary of the method: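 Fluorescence ratio, treated over untreated, read by chip scanner; ratio of two or more counted significant. Cells: S288C yeast, YPD, 25° C, chemical added at log phase for 2 h at growth-inhibiting, sublethal level. Cy3/Cy5-labeled cDNA from oligo-dT-purified mRNA.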
compound,measurement,setting,value
"N#Cc1c(Cl)c(Cl)c(Cl)c(C#N)c1Cl [(9), 2,4,5,6-Tetrachloro-1,3-benzenedicarbonitrile]",The level of expressed mRNA in the presence of chemical substance/The level of expressed mRNA in the absence of chemical substance,"yeast gene YJL108C, cultured two hours with substance",0.3
same,The level of expressed mRNA in the presence of chemical substance/The level of expressed mRNA in the absence of chemical substance,"yeast gene YJL144W, cultured two hours with substance",14.6
same,The level of expressed mRNA in the presence of chemical substance/The level of expressed mRNA in the absence of chemical substance,"yeast gene YJL149W, cultured two hours with substance",1.5
same,The level of expressed mRNA in the presence of chemical substance/The level of expressed mRNA in the absence of chemical substance,"yeast gene YJL151C, cultured two hours with substance",0.5
same,The level of expressed mRNA in the presence of chemical substance/The level of expressed mRNA in the absence of chemical substance,"yeast gene YJL152W, cultured two hours with substance",0.3
same,The level of expressed mRNA in the presence of chemical substance/The level of expressed mRNA in the absence of chemical substance,"yeast gene YJL161W, cultured two hours with substance",3.1
same,The level of expressed mRNA in the presence of chemical substance/The level of expressed mRNA in the absence of chemical substance,"yeast gene YJL163C, cultured two hours with substance",14.5
same,The level of expressed mRNA in the presence of chemical substance/The level of expressed mRNA in the absence of chemical substance,"yeast gene YJL171C, cultured two hours with substance",1.0
same,The level of expressed mRNA in the presence of chemical substance/The level of expressed mRNA in the absence of chemical substance,"yeast gene YJL186W, cultured two hours with substance",0.2
same,The level of expressed mRNA in the presence of chemical substance/The level of expressed mRNA in the absence of chemical substance,"yeast gene YJR008W, cultured two hours with substance",1.8
same,The level of expressed mRNA in the presence of chemical substance/The level of expressed mRNA in the absence of chemical substance,"yeast gene YJR074W, cultured two hours with substance",3.7
same,The level of expressed mRNA in the presence of chemical substance/The level of expressed mRNA in the absence of chemical substance,"yeast gene YJR085C, cultured two hours with substance",3.7
same,The level of expressed mRNA in the presence of chemical substance/The level of expressed mRNA in the absence of chemical substance,yeast gene YJR155W,38.2
same,The level of expressed mRNA in the presence of chemical substance/The level of expressed mRNA in the absence of chemical substance,"yeast gene YJR155W, cultured for two hours with substance",38.2
same,The level of expressed mRNA in the presence of chemical substance/The level of expressed mRNA in the absence of chemical substance,"yeast gene YKL071W, cultured two hours with substance",162.2
same,The level of expressed mRNA in the presence of chemical substance/The level of expressed mRNA in the absence of chemical substance,"yeast gene YKL086W, cultured two hours with substance",8.2
same,The level of expressed mRNA in the presence of chemical substance/The level of expressed mRNA in the absence of chemical substance,"yeast gene YKL107W, cultured two hours with substance",28.2
same,The level of expressed mRNA in the presence of chemical substance/The level of expressed mRNA in the absence of chemical substance,"yeast gene YKL151C, cultured two hours with substance",3.3
same,The level of expressed mRNA in the presence of chemical substance/The level of expressed mRNA in the absence of chemical substance,"yeast gene YKL153W, cultured two hours with substance",0.8
same,The level of expressed mRNA in the presence of chemical substance/The level of expressed mRNA in the absence of chemical substance,"yeast gene YKL195W, cultured two hours with substance",3.6
same,The level of expressed mRNA in the presence of chemical substance/The level of expressed mRNA in the absence of chemical substance,"yeast gene YKR091W, cultured two hours with substance",1.0
same,The level of expressed mRNA in the presence of chemical substance/The level of expressed mRNA in the absence of chemical substance,yeast gene YLL055W (transport facilitation protein gene),19.1
same,The level of expressed mRNA in the presence of chemical substance/The level of expressed mRNA in the absence of chemical substance,"yeast gene YLL056C, cultured two hours with substance",58.8
same,The level of expressed mRNA in the presence of chemical substance/The level of expressed mRNA in the absence of chemical substance,yeast gene YLL060C (stress protein genes),13.0
same,The level of expressed mRNA in the presence of chemical substance/The level of expressed mRNA in the absence of chemical substance,"yeast gene YLL062C, cultured two hours with substance",14.9
same,The level of expressed mRNA in the presence of chemical substance/The level of expressed mRNA in the absence of chemical substance,"yeast gene YLR031W, cultured two hours with substance",0.9
same,The level of expressed mRNA in the presence of chemical substance/The level of expressed mRNA in the absence of chemical substance,"yeast gene YLR054C, cultured two hours with substance",2.7
same,The level of expressed mRNA in the presence of chemical substance/The level of expressed mRNA in the absence of chemical substance,"yeast gene YLR149C, cultured two hours with substance",6.2
same,The level of expressed mRNA in the presence of chemical substance/The level of expressed mRNA in the absence of chemical substance,"yeast gene YLR152C, cultured two hours with substance",0.6
same,The level of expressed mRNA in the presence of chemical substance/The level of expressed mRNA in the absence of chemical substance,"yeast gene YLR194C, cultured two hours with substance",0.9
same,The level of expressed mRNA in the presence of chemical substance/The level of expressed mRNA in the absence of chemical substance,"yeast gene YLR204W, cultured two hours with the substance",1.4
same,The level of expressed mRNA in the presence of chemical substance/The level of expressed mRNA in the absence of chemical substance,"yeast gene YLR205C, cultured two hours with substance",1.5
same,The level of expressed mRNA in the presence of chemical substance/The level of expressed mRNA in the absence of chemical substance,"yeast gene YLR324W, cultured two hours with substance",3.1
same,The level of expressed mRNA in the presence of chemical substance/The level of expressed mRNA in the absence of chemical substance,"yeast gene YLR350W, cultured two hours with substance",0.6
same,The level of expressed mRNA in the presence of chemical substance/The level of expressed mRNA in the absence of chemical substance,"yeast gene YLR387C, cultured two hours with substance",7.8
same,The level of expressed mRNA in the presence of chemical substance/The level of expressed mRNA in the absence of chemical substance,"yeast gene YLR460C, cultured two hours with substance",13.9
same,The level of expressed mRNA in the presence of chemical substance/The level of expressed mRNA in the absence of chemical substance,"yeast gene YML117W, cultured two hours with substance",1.0
same,The level of expressed mRNA in the presence of chemical substance/The level of expressed mRNA in the absence of chemical substance,"yeast gene YMR009W, cultured two hours with substance",3.4
same,The level of expressed mRNA in the presence of chemical substance/The level of expressed mRNA in the absence of chemical substance,"yeast gene YMR067C, cultured two hours with substance",4.0
same,The level of expressed mRNA in the presence of chemical substance/The level of expressed mRNA in the absence of chemical substance,"yeast gene YMR090W, cultured two hours with substance",16.7
same,The level of expressed mRNA in the presence of chemical substance/The level of expressed mRNA in the absence of chemical substance,"yeast gene YMR097C, cultured two hours with substance",2.1
same,The level of expressed mRNA in the presence of chemical substance/The level of expressed mRNA in the absence of chemical substance,"yeast gene YMR102C, cultured two hours with substance",1.7
same,The level of expressed mRNA in the presence of chemical substance/The level of expressed mRNA in the absence of chemical substance,"yeast gene YMR107W, cultured two hours with substance",6.0
same,The level of expressed mRNA in the presence of chemical substance/The level of expressed mRNA in the absence of chemical substance,"yeast gene YMR140W, cultured two hours with substance",1.8
same,The level of expressed mRNA in the presence of chemical substance/The level of expressed mRNA in the absence of chemical substance,"yeast gene YMR180C, cultured two hours with substance",1.8
same,The level of expressed mRNA in the presence of chemical substance/The level of expressed mRNA in the absence of chemical substance,"yeast gene YMR184W, cultured two hours with substance",2.1
same,The level of expressed mRNA in the presence of chemical substance/The level of expressed mRNA in the absence of chemical substance,"yeast gene YMR191W, cultured two hours with substance",2.2
same,The level of expressed mRNA in the presence of chemical substance/The level of expressed mRNA in the absence of chemical substance,"yeast gene YMR195W, cultured two hours with substance",0.2
same,The level of expressed mRNA in the presence of chemical substance/The level of expressed mRNA in the absence of chemical substance,"yeast gene YMR295C, cultured two hours with substance",1.0
same,The level of expressed mRNA in the presence of chemical substance/The level of expressed mRNA in the absence of chemical substance,"yeast gene YMR315W, cultured two hours with substance",2.4
